Source: publication PMC6085350, “Small molecule inhibitors of RAS-effector protein interactions derived using an intracellular antibody fragment” (Nature Communications, 2018)
“Also recorded” adds a separate entry of the source. Read-outs that look alike come from different tables or passages of the source.

What was measured:
KRAS^G12V-GppNHp = molecular target: T1, KRAS^G12V-GppNHp (Homo sapiens, UniProt P01116, G12V); assay: waterLOGSY NMR binding
T1 construct: made in house; host or cells: E. coli (pGEX-2T; strain named only for the HRAS plasmids)
Method: The waterLOGSY NMR method[35] was used to measure RAS ligand interaction. WaterLOGSY experiments were conducted at a ^1H frequency of 600 MHz using a Bruker Avance spectrometer equipped with a BBI probe. All experiments were conducted at 298 K, 3 mm diameter NMR tubes with a sample final volume of 200 µl was used in all experiments. Solutions were buffered using an H2O 10 mM PBS, 5 mM MgCl2 buffer corrected to pH 7.4. The sample preparation is exemplified as follows, the compound (10 µl of a […] solution in DMSO-d6) was added to an eppendorf before sequential addition of the H2O PBS buffer (163.6 µl), D2O (20 µl), and protein (6.4 µl, 311.8 µM). The resulting solution was spun to ensure full mixing and transferred to a 3 mm NMR tube before running the experiment. For a competition experiment using Y6-scFv or VH, the preparation was carried out in a similar manner; the compound (10 µl of a 10 mM solution in DMSO-d6) was added to an eppendorf before sequential addition of the H2O PBS buffer (146.4 µl), D2O (20 µl), protein (6.4 µl, 311.8 µM) and Y6-ScFv (17.2 µl, 116.6 µM) with a ratio of 5.5:1:1. The resulting solution was spun and transferred to a 3 mm NMR tube before the run. Negative controls (compound alone, without the protein) were prepared in a similar manner, in order to obtain an end volume of 200 μl.
Supplementary Figure 3: Abd-2 WaterLOGSY NMR with and without anti RAS-scFV Abd-2 was analyzed by waterLOGSY. […]
binding of Abd-2 to KRAS -GppNHp (upper trace, in green) but poor binding to KRAS-GDP (middle trace, in red). The proton NMR spectrum of Abd-2 in the absence of protein is […]
shown in the lower trace. Panel b, WaterLOGSY of Abd-2 with KRAS -GppNHp in the presence or absence of scFv competitor respectively top (no binding of Abd-2 to the […]
KRAS -GppNHp + scFv complex) and middle spectra (binding to KRAS -GppNHp without scFv) in purple and red respectively. The lower spectra is the proton NMR of Abd -2 in the absence of protein. Results from panel b confirm the interference of binding by the […]
(§1) (1 picture or pasted object on this page, not shown here)
Supplementary Figure 6: Abd-7 Binding in WaterLOGSy and Kd calculations in CPMG WaterLOGSY and CPMG NMR orthogonal analysis of Abd-5 (panel a, b), Abd-6 (c, d), and Abd-7 (e, f) with GST-KRASG12V-GppNHp. For each waterLOGSY profile, the proton NMR spectrum of the compound is shown together the spectra of the compound after incubation with the KRAS (the NOE transfers occurs when the compounds displace those waters upon binding to the protein). The Kd of interaction of the compounds come from fitting a binding curve (right of panels b, d, f) of a CPMG titration (shown on the left of panels b, d, f). The calculated Kd is shown for each compound.
(MW), Kd, Solubility and ligand efficiency (LE). […]

DLD-1 cells (KRAS^G13D) = assay: Cell viability (CellTiterGlo), DLD-1; assay type: cell-based, human; conditions: for IC50: Homo sapiens; for effect on cell viability: DLD-1, 0–20 μM, up to 72 h
Method: Fig. 5 Abd-7 results on RAS-dependent signalling pathways and cell viability. a, b DLD-1 (a) or H358 (b) cells were serum-starved for 24 h, incubated in mono-layer with Abd-7 in a range from 2, 5, 10 and 20 μM for 3 h and stimulated with EGF 10 min. Proteins were extracted and separated by SDS-PAGE and transferred to membranes for Western analysis with anti-pAKT, anti-pERK, anti-pan AKT and anti-pan ERK. Anti-cyclophilin B antibody was the loading control. Signal was developed using standard ECL. c–e Effects of compounds Abd-2, Abd-4, Abd-5, Abd-6, and Abd-7 on the viability of human cancer cells lines was assessed for a 2-D culture of DLD-1 (mutant KRAS^G13D) cells and HT1080 cells (mutant NRAS^Q61K). The cells were treated with a dose range from 0 μM to 20 μ and incubated for 72 h when cell viability was assessed using CellTitreGlo. […] Each experiment was repeated at least three times (a, b) and four times (c, d). Where error bars are presented, they correspond to mean values ± SD of biological repeats […]
Cancer cell lines were in seeded in ViewPlates-96 microplates (PerkinElmer). DLD-1 cells were plated at 10,000 cells per well and HT1080 cells at 7500 cells per well and cultured in DMEM, high glucose, GlutaMAX media containing 10% FBS at 37 °C in 5% CO2 atmosphere. Cells were cultured overnight and the compounds (dissolved in DMSO and diluted to 0.2% DMSO) were added to the cells at concentrations ranging from 0 to 20 μM. The cells were incubated under standard culture conditions for either 24, 48 or 72 h. Cell viability was as quantitated using the CellTiterGlo Luminescent Cell Viability Assay (Promega) according to the manufacturer’s instructions to measure ATP generated by metabolically active cells. Luminescent signals were measured using an Envision 2103 Multilabel Microplate Reader (PerkinElmer). The luminescence signals obtained from the compound-treated cells were normalized against the signal for DMSO-only treated cells. The IC50 values, calculated from the 48 and 72 h CellTiterGlo data, were generated by non-linear regression using the software GraphPad Prism 7.00 for windows (GraphPad Inc).
Supplementary Figure 7: The effect of Abd compounds on the viability of cancer cells The effect of the chemical series on the viability of human cancer cells lines DLD -1 (a colorectal cancer cell line with mutant KRAS
) and HT1080 (a fibrosarcoma cell line with
). The cells were treated with a dose range from […] of either
Abd-2, Abd-4, Abd-5, Abd-6 and Abd-7 and incubated for 24 or 48 hours. Cell viability was assessed using CellTitreGlo . In each case, the data are normalized to cells treated with DMSO only. Panels a and b are DLD-1 viability and panels c and d are HT1080 viability.
The IC50 for Abd-7 at 48 & 72 […]
hours are shown in panel f. Each experiment was repeated at least four times ( a to d).
Where error bars are presented, they correspond to mean values ± SD of biological repeats.
as §1

T1 sequence (P01116 1-188 isoform P01116-2 G12V): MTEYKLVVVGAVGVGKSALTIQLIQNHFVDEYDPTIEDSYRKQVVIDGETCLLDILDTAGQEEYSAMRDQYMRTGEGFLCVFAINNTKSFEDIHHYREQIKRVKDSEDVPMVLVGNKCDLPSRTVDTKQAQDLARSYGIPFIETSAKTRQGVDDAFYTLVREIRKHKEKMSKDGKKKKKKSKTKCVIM

Row | SMILES | binding to KRAS^G12V-GppNHp (waterLOGSY) (KRAS^G12V-GppNHp) | IC50 (DLD-1 cells (KRAS^G13D); DLD-1, 72 h, read-out: IC50 cell viability) | IC50 (DLD-1 cells (KRAS^G13D); DLD-1, 48 h, Supplementary Fig. 7f, read-out: DLD-1 IC50 48h) | IC50 (DLD-1 cells (KRAS^G13D); DLD-1, 48 h as printed in discussion, read-out: IC50 cell viability) | effect on cell viability (DLD-1 cells (KRAS^G13D))
1 | COc1nc(-c2cccc3c2OCCO3)ccc1Nc1ccc(CN(C)C)cc1 [Abd-7] | confirmed | 8 µM | 9.8 µM | ~8 µM | 
2 | COc1nc(-c2cccc3c2O[C@H](CNC(=O)C2CCOCC2)CO3)ccc1Nc1cccc(CN(C)C)c1 [Abd-6] | confirmed |  |  |  | have an effect on the viability
3 | O=C(NCC1COc2ccccc2O1)c1ccco1 (stereo not shown) [Abd-2] | preferential binding |  |  |  | no effect on cell viability; also recorded: had not effect
4 | COc1cccc(-c2cccc3c2OC(CNC(=O)c2ccc(OCCN(C)C)cc2)CO3)n1 (stereo not shown) [Abd-5] | confirmed |  |  |  | have an effect on the viability
